± gives the expanded uncertainty stated by the source.
How the values were obtained:
[1] = 100 kPa, Liquid; for speed of sound: Frequency=3 MHz, Single path-length method; for mass density: Vibrating tube method; for viscosity: Capillary tube (Ostwald / Ubbelohde) method
[2] = xn = mol fraction of the nth substance listed; details: 100 kPa, Liquid, x2 = 0; for viscosity: Capillary tube (Ostwald / Ubbelohde) method; for speed of sound: Frequency=3 MHz, Single path-length method; for mass density: Vibrating tube method

C=CCn1cc[n+](C)c1.O=S(=O)([N-]S(=O)(=O)C(F)(F)F)C(F)(F)F
[1]
Details | mass density [kg/m3] | speed of sound [m/s] | viscosity [mPa·s]
278.15 K | 1520.13 ± 3.2 | 1286.6 ± 6.2 | –
283.15 K | 1514.97 ± 3.2 | 1274.9 ± 6.2 | –
288.15 K | 1509.81 ± 3.2 | 1263.1 ± 6.2 | –
293.15 K | 1504.69 ± 3.2 | 1251.6 ± 6.2 | 41.83 ± 3.4
298.15 K | – | 1240.2 ± 6.2 | –
303.15 K | 1494.52 ± 3.2 | 1228.9 ± 6.2 | 28.51 ± 2.3
308.15 K | 1489.48 ± 3.2 | 1217.8 ± 6.2 | 23.96 ± 1.9
313.15 K | 1484.45 ± 3.2 | 1206.8 ± 6.2 | 20.41 ± 1.6
318.15 K | 1479.44 ± 3.2 | 1196 ± 6.2 | 17.51 ± 1.4
323.15 K | 1474.45 ± 3.1 | 1185.2 ± 6.2 | 15.19 ± 1.2
328.15 K | 1469.5 ± 3.1 | 1174.7 ± 6.2 | 13.23 ± 1.1
333.15 K | 1464.56 ± 3.1 | 1164.2 ± 6.2 | 11.62 ± 0.93
338.15 K | 1459.65 ± 3.1 | 1153.8 ± 6.2 | 10.28 ± 0.83
343.15 K | 1454.75 ± 3.1 | 1143.5 ± 6.2 | 9.125 ± 0.73

CCCC[N+]1(C)CCCC1.O=S(=O)([N-]S(=O)(=O)C(F)(F)F)C(F)(F)F
[1]
Details | mass density [kg/m3] | speed of sound [m/s] | viscosity [mPa·s]
278.15 K | 1412.33 ± 3.3 | 1316.3 ± 6.3 | –
283.15 K | 1407.79 ± 3.2 | 1304.4 ± 6.3 | –
288.15 K | 1403.28 ± 3.2 | 1292.5 ± 6.3 | –
293.15 K | 1398.78 ± 3.2 | 1280.8 ± 6.3 | 97.14 ± 7.9
298.15 K | 1394.32 ± 3.2 | 1269.4 ± 6.3 | 76.54 ± 6.2
303.15 K | 1389.87 ± 3.2 | 1258.2 ± 6.3 | 61.31 ± 4.9
308.15 K | 1385.44 ± 3.2 | 1247.1 ± 6.3 | 49.84 ± 4
313.15 K | 1381.05 ± 3.2 | 1236.1 ± 6.3 | 41.08 ± 3.3
318.15 K | 1376.66 ± 3.2 | 1225.3 ± 6.3 | 34.3 ± 2.8
323.15 K | 1372.3 ± 3.1 | 1214.6 ± 6.3 | 28.98 ± 2.3
328.15 K | 1367.94 ± 3.1 | 1204.1 ± 6.3 | 24.76 ± 2
333.15 K | 1363.6 ± 3.1 | 1193.6 ± 6.3 | 20.74 ± 1.7
338.15 K | 1359.28 ± 3.1 | 1183.2 ± 6.3 | 18.03 ± 1.5
343.15 K | 1354.98 ± 3.1 | 1173 ± 6.3 | 15.8 ± 1.3

O=S(=O)([N-]S(=O)(=O)C(F)(F)F)C(F)(F)F.On1cc[n+](O)c1 [1,3-dihydroxyimidazolium bis(trifluoromethylsulfonyl)imide]
[1]
Details | mass density [kg/m3] | speed of sound [m/s] | viscosity [mPa·s]
293.15 K | 1746.4 ± 4.3 | 1208.2 ± 6.3 | 238.6 ± 20
298.15 K | 1740.44 ± 4.3 | 1196.6 ± 6.3 | 171.83 ± 14
303.15 K | 1734.52 ± 4.3 | 1185.2 ± 6.3 | 127.52 ± 10
308.15 K | 1728.64 ± 4.3 | 1174.1 ± 6.3 | 96.92 ± 7.9
313.15 K | 1722.79 ± 4.2 | 1163.1 ± 6.3 | 75.56 ± 6.1
318.15 K | 1716.97 ± 4.2 | 1152.3 ± 6.3 | 59.8 ± 4.8
323.15 K | 1711.19 ± 4.2 | 1141.6 ± 6.3 | 48.29 ± 3.9
328.15 K | 1705.44 ± 4.2 | 1131.1 ± 6.3 | 39.57 ± 3.2
333.15 K | 1699.71 ± 4.2 | 1120.7 ± 6.3 | 32.88 ± 2.7
338.15 K | 1694.01 ± 4.2 | 1110.4 ± 6.3 | 27.69 ± 2.2
343.15 K | 1688.34 ± 4.1 | 1100.2 ± 6.3 | 23.59 ± 1.9

CCCO [propan-1-ol]
[1]
Details | mass density [kg/m3] | speed of sound [m/s] | viscosity [mPa·s]
278.15 K | 815.52 ± 1.6 | 1276 ± 6 | –
283.15 K | 811.6 ± 1.6 | 1258.7 ± 6 | –
288.15 K | 807.63 ± 1.6 | 1241.1 ± 6 | –
293.15 K | 803.65 ± 1.6 | 1223.8 ± 6 | 2.14 ± 0.17
298.15 K | 799.65 ± 1.6 | 1206.5 ± 6 | 1.897 ± 0.15
303.15 K | 795.61 ± 1.6 | 1189.4 ± 6 | 1.688 ± 0.14
308.15 K | 791.54 ± 1.6 | 1172.4 ± 6 | 1.506 ± 0.12
313.15 K | 787.43 ± 1.6 | 1155.5 ± 6 | 1.348 ± 0.11
318.15 K | 783.27 ± 1.6 | 1138.7 ± 6 | 1.211 ± 0.097
323.15 K | 779.05 ± 1.6 | 1121.9 ± 6 | 1.09 ± 0.087
328.15 K | 774.79 ± 1.6 | 1105.2 ± 6 | 0.985 ± 0.079
333.15 K | 770.44 ± 1.6 | 1088.3 ± 6 | 0.892 ± 0.072
338.15 K | 766.03 ± 1.5 | 1071.5 ± 6 | 0.81 ± 0.065
343.15 K | 761.53 ± 1.5 | 1054.5 ± 6 | 0.737 ± 0.059

CCCO [propan-1-ol] + C=CCn1cc[n+](C)c1.O=S(=O)([N-]S(=O)(=O)C(F)(F)F)C(F)(F)F
[2]
Details | mass density [kg/m3] | speed of sound [m/s] | viscosity [mPa·s]
293.15 K | 804 ± 2 | 1223.8 ± 6 | 2.14 ± 0.17
298.15 K | – | 1206.5 ± 6 | –
303.15 K | 796 ± 2 | 1189.4 ± 6 | 1.688 ± 0.14
308.15 K | 792 ± 2 | 1172.4 ± 6 | 1.506 ± 0.12
313.15 K | 787 ± 2 | 1155.5 ± 6 | 1.348 ± 0.11
318.15 K | 783 ± 2 | 1138.7 ± 6 | 1.211 ± 0.097
323.15 K | 779 ± 2 | 1121.9 ± 6 | 1.09 ± 0.087
328.15 K | 775 ± 2 | 1105.2 ± 6 | 0.985 ± 0.079
333.15 K | 770 ± 2 | 1088.3 ± 6 | 0.892 ± 0.072
338.15 K | 766 ± 2 | 1071.5 ± 6 | 0.81 ± 0.065
343.15 K | 762 ± 2 | 1054.5 ± 6 | 0.737 ± 0.059

CCCO [propan-1-ol] + CC[S+](CC)CC.O=S(=O)([N-]S(=O)(=O)C(F)(F)F)C(F)(F)F
[2]
Details | mass density [kg/m3] | speed of sound [m/s] | viscosity [mPa·s]
293.15 K | 804 ± 2 | 1223.8 ± 6 | 2.14 ± 0.17
298.15 K | 800 ± 2 | 1206.5 ± 6 | 1.897 ± 0.15
303.15 K | 796 ± 2 | 1189.4 ± 6 | 1.688 ± 0.14
308.15 K | 792 ± 2 | 1172.4 ± 6 | 1.506 ± 0.12
313.15 K | 787 ± 2 | 1155.5 ± 6 | 1.348 ± 0.11
318.15 K | 783 ± 2 | 1138.7 ± 6 | 1.211 ± 0.097
323.15 K | 779 ± 2 | 1121.9 ± 6 | 1.09 ± 0.087
328.15 K | 775 ± 2 | 1105.2 ± 6 | 0.985 ± 0.079
333.15 K | 770 ± 2 | 1088.3 ± 6 | 0.892 ± 0.072
338.15 K | 766 ± 2 | 1071.5 ± 6 | 0.81 ± 0.065
343.15 K | 762 ± 2 | 1054.5 ± 6 | 0.737 ± 0.059

CCCO [propan-1-ol] + O=S(=O)([N-]S(=O)(=O)C(F)(F)F)C(F)(F)F.On1cc[n+](O)c1
[2]
Details | mass density [kg/m3] | speed of sound [m/s] | viscosity [mPa·s]
293.15 K | 804 ± 2 | 1223.8 ± 6 | 2.14 ± 0.17
298.15 K | 800 ± 2 | 1206.5 ± 6 | 1.897 ± 0.15
303.15 K | 796 ± 2 | 1189.4 ± 6 | 1.688 ± 0.14
308.15 K | 792 ± 2 | 1172.4 ± 6 | 1.506 ± 0.12
313.15 K | 787 ± 2 | 1155.5 ± 6 | 1.348 ± 0.11
318.15 K | 783 ± 2 | 1138.7 ± 6 | 1.211 ± 0.097
323.15 K | 779 ± 2 | 1121.9 ± 6 | 1.09 ± 0.087
328.15 K | 775 ± 2 | 1105.2 ± 6 | 0.985 ± 0.079
333.15 K | 770 ± 2 | 1088.3 ± 6 | 0.892 ± 0.072
338.15 K | 766 ± 2 | 1071.5 ± 6 | 0.81 ± 0.065
343.15 K | 762 ± 2 | 1054.5 ± 6 | 0.737 ± 0.059

CC[S+](CC)CC.O=S(=O)([N-]S(=O)(=O)C(F)(F)F)C(F)(F)F [triethylsulfonium bis((trifluoromethyl)sulfonyl)imide]
[1]
Details | mass density [kg/m3] | speed of sound [m/s] | viscosity [mPa·s]
278.15 K | 1479.52 ± 3 | 1284.8 ± 6.1 | –
283.15 K | 1474.62 ± 3 | 1274.1 ± 6.1 | –
288.15 K | 1469.71 ± 3 | 1263.3 ± 6.1 | –
293.15 K | 1464.83 ± 3 | 1252.9 ± 6.1 | 39.64 ± 3.2
298.15 K | 1459.98 ± 3 | 1242.5 ± 6.1 | 32.43 ± 2.6
303.15 K | 1455.14 ± 3 | 1232.4 ± 6.1 | 26.92 ± 2.2
308.15 K | 1450.33 ± 3 | 1222.4 ± 6.1 | 22.64 ± 1.8
313.15 K | 1445.52 ± 3 | 1212.7 ± 6.1 | 19.24 ± 1.5
318.15 K | 1440.74 ± 2.9 | 1203.1 ± 6.1 | 16.53 ± 1.3
323.15 K | 1435.99 ± 2.9 | 1193.7 ± 6.1 | 14.31 ± 1.1
328.15 K | 1431.27 ± 2.9 | 1184.7 ± 6.1 | 12.5 ± 1
333.15 K | 1426.57 ± 2.9 | 1175.9 ± 6.1 | 10.99 ± 0.88
338.15 K | 1421.87 ± 2.9 | 1166.8 ± 6.1 | 9.726 ± 0.78
343.15 K | 1417.19 ± 2.9 | 1157.6 ± 6.1 | 8.659 ± 0.69

— the NIST ThermoML archive (doi:10.1021/acs.jced.8b00537)
